Experimental findings from patent US20260207602A1, “EGFR INHIBITORS” (Blueprint Medicines Corporation, priority 2022, published 2026) are described below.

One experiment concerns the target T1, EGFR (d746-750) (Homo sapiens, UniProt P00533, DEL746-750).
T1 construct: purchased SignalChem E10-122JG
The experiment is described as follows: Biochemical EGFR inhibition assay (Caliper mobility shift), EGFR (d746-750). The following applies: biochemical Caliper mobility shift assay, EGFR Exon 19-del enzyme; read-out: Enz EGFR Exon 19-del IC50. The method, then: (§1) Inhibitory effects of the compounds of the disclosure were measured in biochemical assays that measure the phosphorylation activity of EGFR enzyme phosphorylates 2.5 micromolar 5-FAM-[…]-CONH2 peptide substrate (ProfilerPro Kinase Peptide Substrate 22, PerkinElmer, Part #760366) in the presence of adenosine-5′-triphosphate (ATP) and varying concentrations of the test compound in 100 mM 2-[4-(2-hydroxyethyl)piperazin-1-yl]ethanesulfonic acid (HEPES), pH 7.5, 10 mM MgCl2, 0.015% Brij-35, 1 mM dithiothreitol (DTT), 1.0% dimehylsulfoxide (DMSO). Assays were performed at 1.0 mM ATP or at ATP Km of the EGFR enzymes. Reactions proceeded until between 10% to 20% total peptides were phosphorylated at room temperature (25° C.) and were terminated with 35 mM 2,2′,2″,2′″-(ethane-1,2-diyldinitrilo)tetraacetic acid (EDTA). Product was detected using the Caliper mobility shift detection method where the phosphorylated peptide (product) and substrate were electrophoretically separated and measured. Percent activity was plotted against log concentration of compound and points to generate an apparent IC50. The following enzyme forms of • EGFR were examples that were used in these assays: • EGFR WT (SignalChem, E10-112G) • EGFR L858R (SignalChem, E10-122BG) • EGFR (d746-750) (SignalChem, E10-122JG) • EGFR L858R C797S (SignalChem, E10-122ZG) • EGFR (d746-750) C797S (SignalChem, E10-122TG)

In the next experiment the target is T2, EGFR L858R (Homo sapiens, UniProt P00533, L858R).
T2 construct: purchased SignalChem E10-122BG
The experiment in a line: Biochemical EGFR inhibition assay (Caliper mobility shift), EGFR L858R. The settings on record: biochemical Caliper mobility shift assay, EGFR L858R enzyme; read-out: Enz EGFR L858R IC50. As for the experimental part:
as §1

In experiment [1] the target is intracellular phosphorylation of EGFR (Tyr1068) in PC-9 cells (Homo sapiens, UniProt P00533, DEL746-750). The experiment is described as follows: PC-9 pEGFR AlphaLISA assay. It is filed as cell-based. The settings on record: 4 hours incubation, read-out: Phos EGFR PC9 IC50. The method, then:
PC-9/A431 pEGFR AlphaLISA Assays
Inhibitory effects of compounds were evaluated in cellular assays that measure level of intracellular phosphorylation of EGFR in PC-9 (ECACC, #90071810, Milipore/Sigma) and A431 cell lines (ATCC, CRL-1555) using AlphaLISA sureFire ultra p-EGFR (Tyr1068) assay kit (PerkinElmer, ALSU-PEGFR-A50K). PC-9 cells were seeded at 3.125×10^5 cells/ml in 40 μL phenol-free DMEM supplemented with 10% FBS per well of a 384 well plate (Corning, 3764), while A431 were seeded at […] in 40 μL in phenol-free DMEM with 0.5% FBS. Cells were allowed to adhere overnight at 37° C./5% CO2. On the next day, compounds were transferred at 4-fold, 10-point serial dilution from compound source plate to cell plates using liquid handler Echo550 and were incubated at 37° C./5% CO2 for 4 hours. A431 cells were stimulated prior harvesting for 10 min with EGF at final concentration of 30 ng/ml in the incubator. Medium was removed from the plates and cells were lysed with 10 μL of 1× AlphaLISA lysis buffer (supplemented with 1× protease/phosphatase inhibitor cocktail) followed by shaking at 600 rpm for 30 minutes at room temperature. Lysates were transferred to Optiplate (Apricot designs) and 5 ul of 1× acceptor bead mix (prepared just before use) was added to each well followed by incubation at room temperature for 1.5-2 h in dark. Then 5 μL of freshly-made donor bead mix is added to each well under subdued lighting or green filters, was mixed well on the shaker and the plate was sealed and left for an overnight incubation at room temperature in dark. On the next day, the plate was read the Envision using standard AlphaLisa settings. Percent of pEGFR inhibition was plotted against log concentration of compounds to generate IC50 values.

T2 sequence (P00533 25-1210 L858R): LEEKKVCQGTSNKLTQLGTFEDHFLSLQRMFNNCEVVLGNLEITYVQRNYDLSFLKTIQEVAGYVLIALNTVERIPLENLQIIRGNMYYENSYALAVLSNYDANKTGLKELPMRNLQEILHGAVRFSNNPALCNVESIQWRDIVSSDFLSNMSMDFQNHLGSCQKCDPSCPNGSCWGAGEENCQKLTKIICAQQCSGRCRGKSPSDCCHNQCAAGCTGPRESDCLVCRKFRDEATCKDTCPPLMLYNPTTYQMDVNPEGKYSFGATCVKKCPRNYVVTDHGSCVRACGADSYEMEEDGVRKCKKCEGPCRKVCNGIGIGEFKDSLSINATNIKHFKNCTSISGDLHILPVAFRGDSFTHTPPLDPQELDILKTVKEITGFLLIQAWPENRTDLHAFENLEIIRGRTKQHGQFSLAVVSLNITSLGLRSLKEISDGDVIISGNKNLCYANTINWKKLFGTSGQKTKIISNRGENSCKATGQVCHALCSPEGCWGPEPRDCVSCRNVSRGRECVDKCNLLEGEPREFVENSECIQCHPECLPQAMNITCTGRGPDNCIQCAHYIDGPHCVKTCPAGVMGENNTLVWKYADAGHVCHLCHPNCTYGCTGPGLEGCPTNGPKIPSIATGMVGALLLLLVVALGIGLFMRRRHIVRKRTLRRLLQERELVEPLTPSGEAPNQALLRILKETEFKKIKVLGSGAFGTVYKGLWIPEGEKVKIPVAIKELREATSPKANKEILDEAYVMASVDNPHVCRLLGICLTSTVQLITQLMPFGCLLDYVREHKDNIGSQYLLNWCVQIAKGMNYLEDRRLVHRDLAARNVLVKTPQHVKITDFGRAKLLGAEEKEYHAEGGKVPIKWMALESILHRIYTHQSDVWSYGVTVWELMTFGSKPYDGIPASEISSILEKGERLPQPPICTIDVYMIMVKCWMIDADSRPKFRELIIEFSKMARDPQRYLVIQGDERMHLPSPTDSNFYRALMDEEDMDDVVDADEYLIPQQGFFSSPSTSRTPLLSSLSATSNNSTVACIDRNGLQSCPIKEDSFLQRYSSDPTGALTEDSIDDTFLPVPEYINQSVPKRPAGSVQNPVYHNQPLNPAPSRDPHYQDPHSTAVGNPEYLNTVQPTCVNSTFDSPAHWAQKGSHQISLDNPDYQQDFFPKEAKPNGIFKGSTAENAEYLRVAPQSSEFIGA
T1 sequence (P00533 with tags, fused parts or gaps DEL746-750 limits assumed): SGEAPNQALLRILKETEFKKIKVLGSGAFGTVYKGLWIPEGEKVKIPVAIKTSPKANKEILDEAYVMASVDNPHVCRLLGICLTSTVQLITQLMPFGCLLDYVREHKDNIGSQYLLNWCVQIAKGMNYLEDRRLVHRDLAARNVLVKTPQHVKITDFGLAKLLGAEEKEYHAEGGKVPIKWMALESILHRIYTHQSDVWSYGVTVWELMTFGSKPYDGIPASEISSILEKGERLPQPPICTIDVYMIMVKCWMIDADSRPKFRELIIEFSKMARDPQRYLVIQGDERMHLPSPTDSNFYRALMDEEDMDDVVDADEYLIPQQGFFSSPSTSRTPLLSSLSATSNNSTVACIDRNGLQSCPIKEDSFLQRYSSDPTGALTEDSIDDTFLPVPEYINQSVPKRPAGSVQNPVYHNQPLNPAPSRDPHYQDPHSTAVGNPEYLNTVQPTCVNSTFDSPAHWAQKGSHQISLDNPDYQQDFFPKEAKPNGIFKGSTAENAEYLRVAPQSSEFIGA
Chain of intracellular phosphorylation of EGFR (Tyr1068) in PC-9 cells (P00533 with tags, fused parts or gaps DEL746-750): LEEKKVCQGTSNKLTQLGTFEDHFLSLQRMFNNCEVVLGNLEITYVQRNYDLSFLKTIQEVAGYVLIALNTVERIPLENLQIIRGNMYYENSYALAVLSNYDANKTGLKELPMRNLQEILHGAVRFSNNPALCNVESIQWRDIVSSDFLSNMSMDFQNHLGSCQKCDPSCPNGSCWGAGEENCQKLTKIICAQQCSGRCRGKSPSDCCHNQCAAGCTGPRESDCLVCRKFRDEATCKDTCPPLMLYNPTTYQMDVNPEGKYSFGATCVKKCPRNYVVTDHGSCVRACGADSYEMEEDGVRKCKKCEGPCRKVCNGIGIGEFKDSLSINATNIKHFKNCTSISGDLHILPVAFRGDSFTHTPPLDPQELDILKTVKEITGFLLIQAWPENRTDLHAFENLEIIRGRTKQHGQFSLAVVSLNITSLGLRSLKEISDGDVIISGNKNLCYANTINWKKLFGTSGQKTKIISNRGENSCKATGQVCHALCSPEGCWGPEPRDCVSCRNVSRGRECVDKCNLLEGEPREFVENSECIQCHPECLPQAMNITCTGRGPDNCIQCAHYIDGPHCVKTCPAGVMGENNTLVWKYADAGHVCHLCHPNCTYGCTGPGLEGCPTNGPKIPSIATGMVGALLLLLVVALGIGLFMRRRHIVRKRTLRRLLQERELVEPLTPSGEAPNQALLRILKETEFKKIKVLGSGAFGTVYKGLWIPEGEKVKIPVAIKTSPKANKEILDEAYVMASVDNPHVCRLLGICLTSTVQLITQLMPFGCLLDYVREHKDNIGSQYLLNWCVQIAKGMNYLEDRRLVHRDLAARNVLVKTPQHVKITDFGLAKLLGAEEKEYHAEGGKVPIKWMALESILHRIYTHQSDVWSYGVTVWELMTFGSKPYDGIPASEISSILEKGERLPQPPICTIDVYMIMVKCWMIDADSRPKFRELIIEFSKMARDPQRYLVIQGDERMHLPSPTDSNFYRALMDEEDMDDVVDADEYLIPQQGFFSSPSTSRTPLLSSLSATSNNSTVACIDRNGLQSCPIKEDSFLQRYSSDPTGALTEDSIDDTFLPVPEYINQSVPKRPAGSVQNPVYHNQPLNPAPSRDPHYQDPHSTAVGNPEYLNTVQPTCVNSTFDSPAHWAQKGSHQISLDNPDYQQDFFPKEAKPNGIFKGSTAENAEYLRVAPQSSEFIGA

For the compound `Cn1cc(-c2cc(O[C@@H]3CC[C@H](O)C3)c3c(Nc4ccc5ncsc5c4)ncnc3c2)cn1` [Example 411, (1S,3R)-3-((4-(benzo[d]thiazol-6-ylamino)-7-(1-methyl-1H-pyrazol-4-yl)quinazolin-5-yl)oxy)cyclopentan-1-ol], the IC50 (at EGFR (d746-750); on EGFR L858R; in experiment [1]) was no more than 10 nM throughout.
With `COCC[C@@H](C)Oc1cc(-c2cnn(C)c2)cc2ncnc(Nc3ccc4ncsc4c3F)c12` (single isomer, unassigned) [Example 108], the IC50 (on EGFR (d746-750); at EGFR L858R; in experiment [1]) was no more than 10 nM in each case.
As to `C[C@@H]1CN(C)CCN1c1cc(O[C@H](C)C2COC2)c2c(Nc3ccc4ncsc4c3F)ncnc2c1` (single isomer, unassigned) [Example 106, N-(7-((R)-2,4-dimethylpiperazin-1-yl)-5-((R)-1-(oxetan-3-yl)ethoxy)quinazolin-4-yl)-7-fluorobenzo[d]thiazol-6-amine or N-(7-((R)-2,4-dimethylpiperazin-1-yl)-5-((S)-1-(oxetan-3-yl)ethoxy)quinazolin-4-yl)-7-fluorobenzo[d]thiazol-6-amine], the IC50 at EGFR (d746-750) is no more than 10 nM; on EGFR L858R, no more than 10 nM; in experiment [1], 10.1 to 50 nM.
Regarding `CN(C)C1(COc2cc(-c3cnn(C)c3)cc3ncnc(Nc4ccc5ncsc5c4)c23)COC1` [Example 187, N-(5-((3-(dimethylamino)oxetan-3-yl)methoxy)-7-(1-methyl-1H-pyrazol-4-yl)quinazolin-4-yl)benzo[d]thiazol-6-amine], the IC50 on EGFR (d746-750) is no more than 10 nM; at EGFR L858R, 10.1 to 50 nM; in experiment [1] it was 10.1 to 50 nM.
As for `C[C@@H](Oc1cc(-c2cn(C)n(C(F)F)c2=O)cc2ncnc(Nc3ccc4ncsc4c3)c12)C1COC1` (single isomer, unassigned) [Example 174], the IC50 (on EGFR (d746-750); at EGFR L858R; in experiment [1]) was no more than 10 nM each time.
In the case of `COc1cc2ncnc(Nc3ccc4ncsc4c3)c2cc1-c1cnn(C2CCN(C)C[C@H]2F)c1` (single isomer, unassigned) [Example 167], the IC50 at EGFR (d746-750) was no more than 10 nM; on EGFR L858R it was 10.1 to 50 nM; in experiment [1] it was 10.1 to 50 nM.
On to `Cn1cc(-c2cc(OC3CCN(CC(F)F)CC3)c3c(Nc4ccc5ncsc5c4)ncnc3c2)cn1` [Example 311, N-(5-((1-(2,2-difluoroethyl)piperidin-4-yl)oxy)-7-(1-methyl-1H-pyrazol-4-yl)quinazolin-4-yl)benzo[d]thiazol-6-amine], for which the half-maximal inhibitory concentration (IC50) (at EGFR (d746-750); on EGFR L858R; in experiment [1]) was no more than 10 nM throughout.
Turning to `Cn1cc(-c2cc(OC3COC3)c3c(Nc4ccc5ncsc5c4)ncnc3c2)c(OC(F)F)n1` [Example 250, N-(7-(3-(difluoromethoxy)-1-methyl-1H-pyrazol-4-yl)-5-(oxetan-3-yloxy)quinazolin-4-yl)benzo[d]thiazol-6-amine], the IC50 on EGFR (d746-750) was no more than 10 nM; at EGFR L858R, no more than 10 nM; in experiment [1] it was 10.1 to 50 nM.
With `COc1cc2c(Nc3ccc4ncsc4c3F)ncnc2cc1-c1cn(C)nc1OC` [Example 264, 7-fluoro-N-(6-methoxy-7-(3-methoxy-1-methyl-1H-pyrazol-4-yl)quinazolin-4-yl)benzo[d]thiazol-6-amine], the IC50 at EGFR (d746-750) was no more than 10 nM; at EGFR L858R, no more than 10 nM; in experiment [1], 10.1 to 50 nM.
For the compound `COc1cc2ncnc(Nc3ccc4ncsc4c3)c2cc1-c1cnn(C2CCN(C)CC2)c1` [Example 163, N-(7-methoxy-6-(1-(1-methylpiperidin-4-yl)-1H-pyrazol-4-yl)quinazolin-4-yl)benzo[d]thiazol-6-amine], the IC50 (at EGFR (d746-750); on EGFR L858R; in experiment [1]) was no more than 10 nM each time.
For `CC(C)N1CC[C@@H](Oc2cc(-c3cnn(C)c3)cc3ncnc(Nc4ccc5ncsc5c4)c23)C1=O` (single isomer, unassigned) [Example 63], the IC50 (on EGFR (d746-750); at EGFR L858R; in experiment [1]) was no more than 10 nM throughout.
For `C[C@H]1[C@H](Oc2cc(-c3cnn(C)c3)cc3ncnc(Nc4ccc5ncsc5c4)c23)CN1C` (single isomer, unassigned) [Example 322], the values for the IC50 at EGFR (d746-750) and on EGFR L858R were no more than 10 nM and 10.1 to 50 nM, respectively.
Turning to `COc1cc(-c2cc(OC3CCOCC3)c3c(Nc4ccc5ncsc5c4)ncnc3c2)n(C)n1` [Example 256, N-(7-(3-methoxy-1-methyl-1H-pyrazol-5-yl)-5-((tetrahydro-2H-pyran-4-yl)oxy)quinazolin-4-yl)benzo[d]thiazol-6-amine], the IC50 on EGFR (d746-750) and at EGFR L858R was greater than 50.1 nM each time.
Regarding `Cn1cc(-c2cc(OCC3CCOC3)c3c(Nc4ccc5ncsc5c4)ncnc3c2)cn1` (single isomer, unassigned) [Example 42], the half-maximal inhibitory concentration (IC50) at EGFR L858R was no more than 10 nM; in experiment [1], 10.1 to 50 nM.
For `COc1nn(C2CCN(C)CC2)cc1-c1cc(F)c2c(Nc3ccc4ncsc4c3F)ncnc2c1` [Example 226, 7-fluoro-N-(5-fluoro-7-(3-methoxy-1-(1-methylpiperidin-4-yl)-1H-pyrazol-4-yl)quinazolin-4-yl)benzo[d]thiazol-6-amine], the IC50 on EGFR (d746-750) was 10.1 to 50 nM; at EGFR L858R, greater than 50.1 nM.
In the case of `COc1cc2ncnc(Nc3ccc4ncsc4c3)c2cc1N[C@@H]1CCN(C)C[C@H]1F` [Example 301, N4-(benzo[d]thiazol-6-yl)-N6-((3R,4R)-3-fluoro-1-methylpiperidin-4-yl)-7-methoxyquinazoline-4,6-diamine], the IC50 at EGFR (d746-750) and at EGFR L858R was no more than 10 nM in each case.
As for `CN1CC[C@@H](Oc2cc(-c3cnn(C)c3)cc3ncnc(Nc4ccc5ncsc5c4F)c23)C1` [Example 4, (R)-7-fluoro-N-(7-(1-methyl-1H-pyrazol-4-yl)-5-((1-methylpyrrolidin-3-yl)oxy)quinazolin-4-yl)benzo[d]thiazol-6-amine], the IC50 (on EGFR L858R; in experiment [1]) was 10.1 to 50 nM in each case.
As to `COC[C@H](C)Oc1cc(N2CCN(C)CC2)cc2ncnc(Nc3ccc4ncsc4c3)c12` (single isomer, unassigned) [Example 206], the IC50 on EGFR L858R was no more than 10 nM; in experiment [1], 10.1 to 50 nM.
For `CN1CCN(c2cc(OC3CCOCC3)c3c(Nc4ccc5ncsc5c4)ncnc3c2)CC1(C)C` [Example A58, N-(5-((tetrahydro-2H-pyran-4-yl)oxy)-7-(3,3,4-trimethylpiperazin-1-yl)quinazolin-4-yl)benzo[d]thiazol-6-amine], the IC50 at EGFR (d746-750) and on EGFR L858R was greater than 50.1 nM each time.
For `CN1CCN(C(=O)Oc2cc(OC3CCOCC3)c3c(Nc4ccc5ncsc5c4)ncnc3c2)CC1` [Example A11, 4-[(1,3-benzothiazol-6-yl)amino]-5-(oxan-4-yloxy)quinazolin-7-yl 4-methylpiperazine-1-carboxylate], the IC50 on EGFR (d746-750) is 10.1 to 50 nM; at EGFR L858R, greater than 50.1 nM.
Regarding `COc1cc2c(Nc3ccc4ncsc4c3F)ncnc2cc1-c1cnn(C)c1` [Example 265, 7-fluoro-N-(6-methoxy-7-(1-methyl-1H-pyrazol-4-yl)quinazolin-4-yl)benzo[d]thiazol-6-amine], the IC50 (on EGFR L858R; in experiment [1]) was no more than 10 nM each time.
As to `CN1CC[C@@](C)(COc2cc(-c3cnn(C)c3)cc3ncnc(Nc4ccc5ncsc5c4)c23)C1=O` (single isomer, unassigned) [Example 56], the IC50 on EGFR L858R is no more than 10 nM; in experiment [1], 10.1 to 50 nM.
